Read-outs that look alike come from different tables or passages of the source.
Tested on: S. aureus strain ATCC 33591 (MRSA-strain)
Procedure: Organ samples were thawed and homogenized using a Polytron tissue homogenizer after addition of 3 mL isotonic sodium chloride solution. First, a calibration curve was prepared by spiking different concentrations of CorA into the respective matrix from CD-1 mice. Caffeine was used as an internal standard. In addition, quality control samples (QCs) were prepared for CorA for every matrix. For PD samples, calibration curve and QCs were prepared for levofloxacin using the same protocol. The following extraction procedure was used: 50 µL of a sample (calibration sample, QCs, PK or PD sample) was extracted with 20 µL of acetic acid in water (10/90 (v/v)) and 30 µL acetonitrile for 5 min at 800 rpm on an Eppendorf MixMate® vortex mixer. Then, samples were spun down for 20 min at 4 °C and 4000 rpm and supernatants were transferred to new Greiner 96-well V-bottom plates. Samples were analyzed using an Agilent 1290 Infinity II HPLC system (Waldbronn, Germany) coupled to an AB Sciex QTrap6500plus mass spectrometer (Darmstadt, Germany). LC conditions were as follows: column: Agilent Zorbax Exlipse Plus C18, 50 × 2.1 mm, 1.8 µm; temperature: 30 °C; injection volume: 5 µL per sample; flow rate: 800 µL/min. Samples were run under buffered conditions: A: 95% water + 5% acetonitrile + 5 mM ammonium acetate + 40 µL/L acetic acid; B: 95% acetonitrile + 5% water + 5 mM ammonium acetate + 40 µL/L acetic acid. The gradient was as follows: 99% A at 0 min, 99% A until 0.1 min, 99–0% A from 0.1 min to 4.0 min, 0% A until 4.5 min. Mass transitions for controls and compounds are depicted in Table S1. Peaks of PK samples were quantified using the calibration curve. The accuracy of the calibration curve was determined using QCs independently prepared on different days. PK parameters were determined using a non-compartmental analysis with PKSolver.
Inocula were prepared as described previously with the modification that isotonic sodium chloride solution was used instead of PBS [25]. For the neutropenic thigh and the neutropenic lung infection model the S. aureus strain ATCC 33591 (MRSA-strain) was used. For the neutropenic lung infection model an inoculum of 2 × 10^9 cfu/mL was used. For the neutropenic thigh infection model an inoculum of 7 × 10^5 cfu/mL was used.
The model was conducted as described previously. In brief, the following groups were used: (1) inoculum control group with terminal endpoint at 2 h post infection to determine baseline inoculum in vivo; (2) vehicle-treated group receiving 20 mg/kg SC tramadol and vehicle (PEG400/PBS (80:20 (v/v)); (3) levofloxacin group 5 mg/kg IP three times a day (TID) (t = 2, 6 and 10 h post infection); (4) CorA 60 mg/kg IP TID (t = 2, 6 and 10 h post infection) and (5) CorA 100 mg/kg IP BID (t = 2 and 6 h post infection). The endpoint for groups no. 2–5 was 24 h post infection. A solution of […].

## C/C=C/C/C=C(\C)C(O)CC/C(C)=C/C=C(\C)C(=O)c1c(O)cc([C@H](C)CC/C=C/NC(=O)OC)oc1=O (stereo partly shown) [CorA, Corallopyronin A]
60 mg/kg IP BID (so in the source) vs 100 mg/kg IP BID, thigh
  terminal thigh concentrations lower than in the group at 100 mg/kg IP BID: more than 10 fold
60 mg/kg IP TID
  terminal level in lung tissue: not detected
60 mg/kg IP TID, 24 h post infection, secondary seeding, vs vehicle
  bacterial burden in lung tissue: did not show any effect
60 mg/kg IP TID, 24 h post infection, vs vehicle
  bacterial burden in thigh tissue: did not show any effect
100 mg/kg IP BID
  terminal level in lung tissue: detected at low levels
100 mg/kg IP BID vs 60 mg/kg IP TID, liver
  terminal liver levels lower than at 60 mg/kg IP TID: more than 5 fold
100 mg/kg IP BID, 24 h post infection
  bacterial burden in thigh: significant reduction
